Laboratory results: the supplement of paper PMC11208160

Assay: recombinant barcode read abundance after kanamycin selection (control-corrected) (log10(CPM+1)); higher = more efficient recombination; sequences stand for … in AGTGCAGAGAAAATCGGCCAGTTTTCTCTGCCTGCAGTCCGCATGCCGT…AGATTTATGCAGCGGACTGCCTTTCTCCCAAAGTGATAAACCGGACAGTATCATGGACCGGTTTTCCCGGTAATCCGTATTTGCAAGGTTGGTTTCACT; site = the 11-nt target
Outline: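 The screen was pooled in E. coli and paired targets with IS621 bridge RNA target-binding loops. Recombination efficiency is taken from barcode counts per million at recombinant junctions, averaged and adjusted against the control. Values, in the form log10(CPM+1), come from duplicate plating on chloramphenicol/ampicillin LB agar or on chloramphenicol/ampicillin/kanamycin with 0.1 mM IPTG.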
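Note: IS621 recombinase and bridge RNA in Escherichia coli cells.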

Sequence	recombinant barcode read abundance (log10)
GCCATAACTTGGGTTCTAACCTGTTGCCT (site GCCATAACTAG)	0.0347
GCCATAACTTGGGTTCTAACCTGTTGCCT (site GCCATCACTAG)	0.0218
GCCATAACTTGGGTTCTAACCTGTTGCCT (site GCCATGACTAG)	0.256
GCCATAACTTGGGTTCTAACCTGTTGCCT (site GCCATTACTAG)	0.191
GCCCGAACTTGGGTTCTAACCTGTTGCCT (site GCACGAACTAG)	0.141
GCCCGAACTTGGGTTCTAACCTGTTGCCT (site GCCCGAACTAG)	0.998
GCCCGAACTTGGGTTCTAACCTGTTGCCT (site GCGCGAACTAG)	0.0267
GCCCGAACTTGGGTTCTAACCTGTTGCCT (site GCTCGAACTAG)	0.101
GCCCGATCTTGGGTTCTAACCTGTTGCCT (site GCCCAATCTAG)	0.743
GCCCGATCTTGGGTTCTAACCTGTTGCCT (site GCCCCATCTAG)	0.179
GCCCGATCTTGGGTTCTAACCTGTTGCCT (site GCCCGATCTAG)	1.42
GCCCGATCTTGGGTTCTAACCTGTTGCCT (site GCCCTATCTAG)	0.0709
GCCCGGGCTTGGGTTCTAACCTGTTGCGG (site GCCCGGGCTCC)	2.39
GCCCGGGCTTGGGTTCTAACCTGTTGCGG (site GGCCGGGCTCC)	0.022
GCCCTATCTTGGGTTCTAACCTGTTGCCT (site GCCCAATCTAG)	0.0981
GCCCTATCTTGGGTTCTAACCTGTTGCCT (site GCCCCATCTAG)	0.107
GCCCTATCTTGGGTTCTAACCTGTTGCCT (site GCCCGATCTAG)	0.0182
GCCCTATCTTGGGTTCTAACCTGTTGCCT (site GCCCTATCTAG)	1.35
GCCCTGCCTTGGGTTCTAACCTGTTGCGT (site GCCCTGCCTAC)	2.62
GCCCTGCCTTGGGTTCTAACCTGTTGCGT (site TACCTGCCTAC)	0.133
GCCGAAACTTGGGTTCTAACCTGTTGCCT (site GCCGAAACTAG)	0.0181
GCCGAAACTTGGGTTCTAACCTGTTGCCT (site GCCGACACTAG)	0.0951

Sequence	recombinant barcode read abundance (log10)
GCCGAAACTTGGGTTCTAACCTGTTGCCT (site GCCGAGACTAG)	0.052
GCCGAAACTTGGGTTCTAACCTGTTGCCT (site GCCGATACTAG)	0.311
GCCGAGCCTTGGGTTCTAACCTGTTGCCA (site GCCGAGCCTTG)	0.21
GCCGAGCCTTGGGTTCTAACCTGTTGCCA (site TAGTGAACTGT)	0.432
GCCGAGGCTTGGGTTCTAACCTGTTGCTG (site GCCGAGGCTCA)	0.439
GCCGAGGCTTGGGTTCTAACCTGTTGCTG (site GTCTAGGCTCA)	0.326
GCCGAGTCTTGGGTTCTAACCTGTTGCAC (site GCCGAGTCTAG)	0.288
GCCGAGTCTTGGGTTCTAACCTGTTGCAC (site GCCGAGTCTGT)	1.25
GCCGAGTCTTGGGTTCTAACCTGTTGCTA (site GCCGAGTCTAA)	0.0891
GCCGAGTCTTGGGTTCTAACCTGTTGCTA (site GCCGAGTCTCA)	0.357
GCCGAGTCTTGGGTTCTAACCTGTTGCTA (site GCCGAGTCTGA)	0.0866
GCCGAGTCTTGGGTTCTAACCTGTTGCTA (site GCCGAGTCTTA)	0.411
GCCGATACTTGGGTTCTAACCTGTTGCCT (site GCCGAAACTAG)	0
GCCGATACTTGGGTTCTAACCTGTTGCCT (site GCCGACACTAG)	0.171
GCCGATACTTGGGTTCTAACCTGTTGCCT (site GCCGAGACTAG)	0.197
GCCGATACTTGGGTTCTAACCTGTTGCCT (site GCCGATACTAG)	0.113
GCCGGGCCTTGGGTTCTAACCTGTTGCCT (site GCCGGGCCTAG)	0.265
GCCGGGCCTTGGGTTCTAACCTGTTGCCT (site GCTGCGCCTAG)	0.0616
GCCGGGGCTTGGGTTCTAACCTGTTGCCG (site GCCAGGGCTCG)	0.262
GCCGGGGCTTGGGTTCTAACCTGTTGCCG (site GCCCGGGCTCG)	0.452
GCCGGGGCTTGGGTTCTAACCTGTTGCCG (site GCCGGGGCTCG)	0.186
GCCGGGGCTTGGGTTCTAACCTGTTGCCG (site GCCTGGGCTCG)	0.258

Sequence	recombinant barcode read abundance (log10)
GCCGTCCCTTGGGTTCTAACCTGTTGCTA (site GCCGTCCCTTA)	0.202
GCCGTCCCTTGGGTTCTAACCTGTTGCTA (site GTCGTCCCTTG)	0.106
GCCGTCTCTTGGGTTCTAACCTGTTGCCT (site GCCATCTCTAG)	0.114
GCCGTCTCTTGGGTTCTAACCTGTTGCCT (site GCCGTCTCTAG)	0.135
GCCTCGCCTTGGGTTCTAACCTGTTGCAG (site GCCACGCCTCT)	0.341
GCCTCGCCTTGGGTTCTAACCTGTTGCAG (site GCCCCGCCTCT)	0.133
GCCTCGCCTTGGGTTCTAACCTGTTGCAG (site GCCGCGCCTCT)	0.326
GCCTCGCCTTGGGTTCTAACCTGTTGCAG (site GCCTCGCCTCT)	0.229
GCCTGCCCTTGGGTTCTAACCTGTTGCTG (site GCCTGCCCTCA)	1.51
GCCTGCCCTTGGGTTCTAACCTGTTGCTG (site TGGGTGACTAG)	0.0502
GCGAAGTCTTGGGTTCTAACCTGTTGCTT (site GCGAACACTAA)	0.0375
GCGAAGTCTTGGGTTCTAACCTGTTGCTT (site GCGAAGTCTAA)	1.15
GCGAATCCTTGGGTTCTAACCTGTTGCCT (site GCGAATCCTAG)	0.845
GCGAATCCTTGGGTTCTAACCTGTTGCCT (site GCGCATCCTAG)	0.213
GCGAATCCTTGGGTTCTAACCTGTTGCCT (site GCGGATCCTAG)	0.069
GCGAATCCTTGGGTTCTAACCTGTTGCCT (site GCGTATCCTAG)	0.099
GCGACTCCTTGGGTTCTAACCTGTTGCAT (site GCGACTCCTAT)	0.857
GCGACTCCTTGGGTTCTAACCTGTTGCAT (site GCGCCTCCTAT)	0.118
GCGACTCCTTGGGTTCTAACCTGTTGCAT (site GCGGCTCCTAT)	0.14
GCGACTCCTTGGGTTCTAACCTGTTGCAT (site GCGTCTCCTAT)	0.0718
GCGACTCCTTGGGTTCTAACCTGTTGCTA (site GAGACTCCTTA)	0.739
GCGACTCCTTGGGTTCTAACCTGTTGCTA (site GCGACTCCTTA)	0.619

Sequence	recombinant barcode read abundance (log10)
GCGAGCTCTTGGGTTCTAACCTGTTGCCT (site GCGAGCTCTAG)	1.6
GCGAGCTCTTGGGTTCTAACCTGTTGCCT (site GCGCGTTCTAG)	0.291
GCGATGTCTTGGGTTCTAACCTGTTGCCT (site GAGATGTCTAG)	0.183
GCGATGTCTTGGGTTCTAACCTGTTGCCT (site GCGATGTCTAG)	1.33
GCGATGTCTTGGGTTCTAACCTGTTGCCT (site GGGATGTCTAG)	0.514
GCGATGTCTTGGGTTCTAACCTGTTGCCT (site GTGATGTCTAG)	0.116
GCGCGGCCTTGGGTTCTAACCTGTTGCTT (site GCACGCCCTAA)	0.0904
GCGCGGCCTTGGGTTCTAACCTGTTGCTT (site GCGCGGCCTAA)	0.492
GCGCTAACTTGGGTTCTAACCTGTTGCCT (site GCGCTAACTAG)	1.05
GCGCTAACTTGGGTTCTAACCTGTTGCCT (site TCGCTAACTAG)	0.169
GCGCTCCCTTGGGTTCTAACCTGTTGCCT (site GCACTCCCTAG)	1.25
GCGCTCCCTTGGGTTCTAACCTGTTGCCT (site GCCCTCCCTAG)	0.388
GCGCTCCCTTGGGTTCTAACCTGTTGCCT (site GCGCTCCCTAG)	0.926
GCGCTCCCTTGGGTTCTAACCTGTTGCCT (site GCTCTCCCTAG)	0.145
GCGGACTCTTGGGTTCTAACCTGTTGCCA (site GCGGACTCTTG)	2.09
GCGGACTCTTGGGTTCTAACCTGTTGCCA (site GCGTACTCTAG)	0.0401
GCGGAGTCTTGGGTTCTAACCTGTTGCGT (site GCGGAGTCTAC)	1.45
GCGGAGTCTTGGGTTCTAACCTGTTGCGT (site GCTAAGTCTAC)	0.0484
GCGGATCCTTGGGTTCTAACCTGTTGCCT (site GCGAATCCTAG)	0.824
GCGGATCCTTGGGTTCTAACCTGTTGCCT (site GCGCATCCTAG)	0.0111
